Where a SMILES comes first, the peptide text is derived from it. [ ]: non-standard residue; d: D form. The star is where a group is joined. Dolaproine = CO[C@@H]([C@@H]1CCCN1)[C@@H](C)C(=O)O; Dil = CC[C@H](C)[C@H](NC)[C@@H](CC(=O)O)OC; X1 = C[C@@H](N*)[C@@H](O)c1ccccc1; NMeV = CN[C@H](C(=O)O)C(C)C
Key:
human CD8+ T cells = experiment: Flow cytometry of cytokine expression in CD3/CD28 stimulated T cells; format: cell-based; conditions: 2 days incubation (100 nM elsewhere in the source)
Description: Therefore, our novel anti-SSTR2 mAb has great potential as a drug delivery vehicle in the form of ADC. […] Using flow cytometry, we analyze the effect of our SSTR2 mAb on the expression of cytokines in the CD3/CD28 stimulated human CD8+ T cells after incubating with mAb for 2 days.
Moreover, the possible effect of the disclosed anti-SSTR2 mAb on cytokine production in CD8^+ T cells was also tested. Post CD3/CD28 stimulation, human CD8^+ T cells were incubated with either 100 nM of SST analog (Octreotide) or 100 nM of the anti-SSTR2 mAb for 2 days. After incubation, flow cytometry was performed to analyze the expression of IL-2 and IFN-γ.

BON-1 cells = experiment: In vitro anti-cancer toxicity (IC50), Luminescent Cell Viability Assay; format: cell-based, human; conditions: 3-day incubation
Description: In vitro anti-cancer toxicity (IC50). BON cell line was utilized to compare the toxicity of ADC. 75 uL of culture media containing cells (viability >95%) with a density of 5×10^4 cells/mL was added in each well of 96-well plate. ADC or MMAE solution was sterilized by 0.2 μm filter and diluted to different concentrations with complete medium. After 4-hr incubation in regular cell culture incubator, 75 μL of ADC or MMAE with gradient concentrations were mixed with cells in the 96-well plate. The well plate was covered by another 96-well plate filled with PBS to prevent medium evaporation during treatment period. After 3-day incubation, the toxicity result was generated through Luminescent Cell Viability Assay (Promega, Madison, […]).

microtubule = experiment: Microtubule de-polymerization imaging; format: cell-based, human; conditions: BON cell line

| SMILES | increase of IFN-γ expression (human CD8+ T cells) [folds] | increase of IL-2 expression (human CD8+ T cells) [folds] | IC50 (BON-1 cells) [nM] | mechanism of NET cell proliferation inhibition (microtubule) |
| --- | --- | --- | --- | --- |
| C[C@@H](O)[C@@H]1NC(=O)[C@H](CCCCN)NC(=O)[C@@H](Cc2c[nH]c3ccccc23)NC(=O)[C@H](Cc2ccccc2)NC(=O)[C@@H](NC(=O)[C@H](N)Cc2ccccc2)CSSC[C@@H](C(=O)N[C@H](CO)[C@@H](C)O)NC1=O [Octreotide] | 2.2 | 1.6 | – | – |
| CC[C@H](C)[C@@H]([C@@H](CC(=O)N1CCC[C@H]1[C@H](OC)[C@@H](C)C(=O)N[C@H](C)[C@@H](O)c1ccccc1)OC)N(C)C(=O)[C@@H](NC(=O)[C@@H](NC)C(C)C)C(C)C [MMAE, monomethyl auristatin E] (H-[NMeV]V[Dil][Dolaproine]-X1) | – | – | 2 | microtubule de-polymerization |
